{"source": "paper PMC10060569", "about": "(Frontiers in Pharmacology, 2023)", "key": {"N190A/S15V-hP2X3R": {"biological_target": "T1, N190A/S15V-hP2X3R (Homo sapiens, UniProt P56373, N190A/S15V)", "T1 construct": "expressed in transfected cells; host or cells: Xenopus laevis oocytes (cRNA injection)", "T1 sequence (P56373 1-397 S15V/N190A)": "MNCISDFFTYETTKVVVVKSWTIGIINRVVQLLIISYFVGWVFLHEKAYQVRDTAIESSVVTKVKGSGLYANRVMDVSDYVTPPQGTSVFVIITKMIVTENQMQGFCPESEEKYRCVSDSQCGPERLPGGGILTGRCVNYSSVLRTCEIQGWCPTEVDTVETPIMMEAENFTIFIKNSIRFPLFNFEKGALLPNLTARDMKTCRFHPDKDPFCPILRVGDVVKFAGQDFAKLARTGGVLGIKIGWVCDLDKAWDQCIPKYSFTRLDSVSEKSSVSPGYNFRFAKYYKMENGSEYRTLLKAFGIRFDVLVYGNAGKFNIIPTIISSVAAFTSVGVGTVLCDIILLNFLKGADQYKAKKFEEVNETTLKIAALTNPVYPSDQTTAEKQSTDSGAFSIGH", "assay": "TEVC of ATP-induced currents, N190A/S15V-hP2X3R mutant in X. laevis oocytes", "format": "cell-based", "details": "read-out: % inhibition of 10 µM ATP-induced currents by 10 µM diclofenac", "procedure": "(§1) Ion currents mediated by P2X receptors were evoked by the indicated concentration of ATP or α,β-meATP and were recorded 1 or 2 days after cRNA injection at ambient temperature at a holding potential of −60 mV by two-electrode voltage clamp (TEVC) as previously described ([Hausmann et al., 2006]). Calcium-free ORi^− solution (90 mM NaCl, 1 mM KCl, 2 mM MgCl2, 10 mM HEPES, pH 7.4) was used to avoid bias due to calcium-activated chloride channels (CaCC) endogenously expressed in X. laevis oocytes ([Miledi, 1982]; [Methfessel et al., 1986]). […]\n(§2) In the case of fast-desensitizing P2XR subtypes (P2X1R and P2X3R), ATP is applied five times in repetition, and the ATP-induced current amplitude in the presence (after pre-incubation) of the antagonist (fourth application) is compared to the arithmetic mean of flanking control ATP-induced current amplitudes in the absence of the antagonist (third and fifth ATP application). […] The correction factor was calculated as the ratio of the fourth ATP-induced current amplitude to the third amplitude (Eq. 3) when the experiment was performed in the absence of the antagonist. […] Since the magnitude of the run-down varies from day to day and batch to batch of oocytes, the correction factor was determined on each day of the experiments and was calculated as the arithmetic mean of several recordings (at least 3–5 and on average 5) on each day. […]"}, "L191A/S15V-hP2X3R": {"biological_target": "T2, L191A/S15V-hP2X3R (Homo sapiens, UniProt P56373, L191A/S15V)", "T2 construct": "expressed in transfected cells; host or cells: Xenopus laevis oocytes (cRNA injection)", "T2 sequence (P56373 1-397 S15V/L191A)": "T1 sequence (P56373 1-397 S15V/N190A) with A190N, L191A", "assay": "TEVC of ATP-induced currents, L191A/S15V-hP2X3R mutant in X. laevis oocytes", "format": "cell-based", "procedure": "as §1, with “1986]). For recordings of wt-hP2X7R, the composition of the ORi^− solution was modified according to protocols described previously and contained 100 mM NaCl, 2.5 mM KCl, 1 mM MgCl2, 5 mM HEPES, pH 7.4 ([Klapperstück et al., 2000]). The oocytes were continuously superfused with ORi^− by gravity flow (5–10 ml/min). The agonists ATP or α,β-meATP and the investigated NSAIDs were diluted in ORi^− on the day of the recording. The following agonist concentrations were used for the different P2X subtypes: 1 μM ATP (hP2X1R mutant, hP2X3R, rP2X3R, S^15V-hP2X3R, and S^15V-rP2X3R); 10 μM ATP (hP2X2R and hP2X4R); 300 μM free ATP^4- (hP2X7R); and 1 μM α,β-meATP (hP2X2/3R).” for “1986]).”\nas §2"}, "[1]": {"details": "cited from earlier work"}}, "note": "Substitutions are numbered along the chain they refer to.", "data": [{"smiles": "O=C(O)Cc1ccccc1Nc1c(Cl)cccc1Cl", "note": "[Diclofenac, diclofenac]", "values": [{"measurement": "inhibition at 10 µM", "setting": "N190A/S15V-hP2X3R", "result": 8.1, "unit": "%"}, {"measurement": "inhibition at 3 µM", "setting": "L191A/S15V-hP2X3R; read-out: % inhibition of 10 µM ATP-induced currents by 3 µM diclofenac", "result": 7.7, "unit": "%"}, {"measurement": "inhibition at 10 µM", "setting": "L191A/S15V-hP2X3R; read-out: % inhibition of 10 µM ATP-induced currents by 10 µM diclofenac", "result": 18.4, "unit": "%"}, {"measurement": "inhibition at 30 µM", "setting": "L191A/S15V-hP2X3R; read-out: % inhibition of 10 µM ATP-induced currents by 30 µM diclofenac", "result": 37.3, "unit": "%"}, {"measurement": "suspected cases of ageusia, dysgeusia, or taste disorders reported in the European Union", "setting": "[1]; EudraVigilance up to 28/11/2022, ref http://www.adrreports.eu/de/", "result": "more than 110 cases"}, {"measurement": "patients reporting an impaired taste sensation", "setting": "[1]; prospective randomized clinical trial, postoperative administration, ref Attri et al., 2015", "result": 58, "unit": "%"}]}]}
